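Assay format: 96-well plates, 48-hour exposure. GI50 = concentration required for 50% inhibition of growth.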 Calls of active or inactive are those of the source. Rule as the data show it: active = GI50 up to about 1.1 µM and inactive = higher.
What was measured:
Experiment in all cases: DTP human tumour cell line panel, 48 h
ACHN = system: ACHN
NCI-H522 = system: NCI-H522
HOP-62 = system: HOP-62
OVCAR-3 = system: OVCAR-3
OVCAR-5 = system: OVCAR-5
SNB-19 = system: SNB-19
IGROV-1 = system: IGROV-1
SN12C = system: SN12C
OVCAR-8 = system: OVCAR-8
SK-MEL-2 = system: SK-MEL-2
HCT-15 = system: HCT-15
SK-MEL-28 = system: SK-MEL-28
A498 = system: A498
HCT-116 = system: HCT-116
LOX IMVI = system: LOX IMVI
HT-29 = system: HT-29
SF-268 = system: SF-268
M14 = system: M14
NCI/ADR-RES = system: NCI/ADR-RES
MDA-MB-435 = system: MDA-MB-435

Structure (SMILES) | GI50 (ACHN) | GI50 (NCI-H522) | GI50 (HOP-62) | GI50 (OVCAR-3) | GI50 (OVCAR-5) | GI50 (SNB-19) | GI50 (IGROV-1) | GI50 (SN12C) | GI50 (OVCAR-8) | GI50 (SK-MEL-2) | GI50 (HCT-15) | GI50 (SK-MEL-28) | GI50 (A498) | GI50 (HCT-116) | GI50 (LOX IMVI) | GI50 (HT-29) | GI50 (SF-268) | GI50 (M14) | GI50 (NCI/ADR-RES) | GI50 (MDA-MB-435)
COC1=C(N)C(=O)c2nc(C)ccc2C1=O | 1.77 µM (inactive) | 1.74 µM (inactive) | 1.57 µM (inactive) | 2.02 µM (inactive) | 1.98 µM (inactive) | 1.91 µM (inactive) | 9.98 µM (inactive) | 1.82 µM (inactive) | 3.93 µM (inactive) | 1.74 µM (inactive) | 1.92 µM | 1.82 µM (inactive) | 1.89 µM (inactive) | 1.94 µM (inactive) | 0.826 µM (active) | 1.98 µM (inactive) | 2.11 µM (inactive) | 1.88 µM (inactive) |  | 
CN(C)CCNC(=O)c1cccc2ccc(-c3ccc(Br)cc3)nc12 |  | 1.6 µM (inactive) | 0.832 µM (active) | 3.27 µM (inactive) | 2.96 µM (inactive) | 4.14 µM (inactive) | 2.96 µM (inactive) | 2.33 µM (inactive) | 1.55 µM (inactive) | 3.09 µM (inactive) | 2.78 µM | 3.76 µM (inactive) | 1.99 µM (inactive) | 1.23 µM (inactive) | 1.64 µM (inactive) | 1.61 µM (inactive) | 3.92 µM (inactive) |  | 1.8 µM (inactive) | 
Cc1c(-c2ccccc2)[nH]c2cc(Cl)ccc2c1=O | 55.8 µM (inactive) |  | 23 µM (inactive) | 56.9 µM (inactive) | > 100 µM (inactive) | 52.8 µM (inactive) |  | > 100 µM (inactive) |  | 37.8 µM (inactive) | 17.2 µM | 71.9 µM (inactive) | > 100 µM (inactive) | 23.8 µM (inactive) | 89.5 µM (inactive) | > 100 µM (inactive) | 33.5 µM (inactive) | 76.2 µM (inactive) |  | 12 µM (inactive)
CCC(C(=O)c1ccc(OC)c(OC)c1)N(C(=O)C(F)(F)F)C(C)c1ccccc1 (stereo unspecified) | > 100 µM (inactive) | > 100 µM (inactive) | > 100 µM (inactive) | > 100 µM (inactive) | > 100 µM (inactive) | > 100 µM (inactive) | > 100 µM (inactive) |  | > 100 µM (inactive) |  | > 100 µM | > 100 µM (inactive) |  | > 100 µM (inactive) | > 100 µM (inactive) | > 100 µM (inactive) | 83.9 µM (inactive) | > 100 µM (inactive) | > 100 µM (inactive) | > 100 µM (inactive)
CCOC(=O)/C=C/c1nc(C#N)c(N)o1 | > 100 µM (inactive) |  | > 100 µM (inactive) |  | > 100 µM (inactive) | > 100 µM (inactive) | > 100 µM (inactive) | > 100 µM (inactive) | > 100 µM (inactive) | > 100 µM (inactive) | > 100 µM | > 100 µM (inactive) | > 100 µM (inactive) | > 100 µM (inactive) | > 100 µM (inactive) | > 100 µM (inactive) | > 100 µM (inactive) | > 100 µM (inactive) |  | > 100 µM (inactive)
COc1ccc(C2C=C(c3ccc(C)cc3)N(c3ccc(OC)cc3[N+](=O)[O-])C3C(=O)OC(=O)C23)c(OC)c1 (stereo unspecified) | 16 µM (inactive) | 10.4 µM (inactive) | 96.6 µM (inactive) | 20.2 µM (inactive) | 48.3 µM (inactive) | 47 µM (inactive) | 15.2 µM (inactive) |  | 16.2 µM (inactive) | 24 µM (inactive) | 33.5 µM | > 100 µM (inactive) | 67 µM (inactive) | 28.2 µM (inactive) | 25.5 µM (inactive) | 24.3 µM (inactive) | 18.5 µM (inactive) | 34.3 µM (inactive) |  | 44.3 µM (inactive)
O=C(O)COc1ccc(C(=O)/C(SS/C(C(=O)c2ccc(OCC(=O)O)c(Cl)c2Cl)=C2\C=C(c3ccc(Br)cc3)SS2)=C2/C=C(c3ccc(Br)cc3)SS2)c(Cl)c1Cl | 4.58 µM (inactive) | 0.798 µM (active) | 12.9 µM (inactive) | 3.73 µM (inactive) | 24.8 µM (inactive) | 5.55 µM (inactive) | 4.99 µM (inactive) | 6.32 µM (inactive) | 5.16 µM (inactive) | 6.61 µM (inactive) | 4.92 µM | 24.8 µM (inactive) | 18.2 µM (inactive) | 3.9 µM (inactive) | 2.69 µM (inactive) | 12.2 µM (inactive) | 2.82 µM (inactive) | 11.1 µM (inactive) |  | 30.3 µM (inactive)
C=C1C(=O)O[C@H]2C/C(C=O)=C\[C@H]3O[C@H]3/C(COC(=O)C(C)C)=C/CC12 (stereo partly specified) | 2.32 µM (inactive) | 3.39 µM (inactive) | 13.6 µM (inactive) | 6.49 µM (inactive) | 2.01 µM (inactive) | 15.8 µM (inactive) | 4.65 µM (inactive) | 2.54 µM (inactive) | 3.14 µM (inactive) |  | 3.3 µM | 3.3 µM (inactive) |  | 3.05 µM (inactive) | 3.21 µM (inactive) | 3.07 µM (inactive) |  |  | 6.34 µM (inactive) | 4.25 µM (inactive)
COc1ccc(C2COc3c(ccc(O)c3C)C2)cc1OC (stereo unspecified) |  | 39.7 µM (inactive) | 163 µM (inactive) | 70.1 µM (inactive) | 119 µM (inactive) | 143 µM (inactive) | 130 µM (inactive) | 104 µM (inactive) | 113 µM (inactive) | 69.7 µM (inactive) | 57.8 µM | 121 µM (inactive) | 11.2 µM (inactive) | 48.3 µM (inactive) | 12.9 µM (inactive) | 65.8 µM (inactive) | 106 µM (inactive) |  | 110 µM (inactive) | 
COCC1OC(OC2C3=C(C(C)C)CCC3(C)/C=C3\C(CCC3(O)COC)C(C)C2O)C(O)C2OC3OC12OC3(C)C1CO1 (stereo unspecified) | 47.2 µM (inactive) | 22.9 µM (inactive) | 89.5 µM (inactive) | 26.4 µM (inactive) | > 100 µM (inactive) | 28.1 µM (inactive) | 37.8 µM (inactive) | 50.9 µM (inactive) | 48 µM (inactive) | 83.6 µM (inactive) | 25.1 µM | 31.6 µM (inactive) | 44 µM (inactive) | 34 µM (inactive) | 22.5 µM (inactive) | 34.8 µM (inactive) | 16.9 µM (inactive) | 43.2 µM (inactive) |  | 31 µM (inactive)
CC(=O)/C=C/C1=C(C)CCCC1(C)CC(C)C (stereo unspecified) | 22.1 µM (inactive) | 18.4 µM (inactive) | 57.9 µM (inactive) | 26.5 µM (inactive) | 61.5 µM (inactive) | 27.4 µM (inactive) | 29.3 µM (inactive) | 18.8 µM (inactive) | 31.3 µM (inactive) | 19.6 µM (inactive) | 15.1 µM | 40.8 µM (inactive) | 24.2 µM (inactive) | 25.5 µM (inactive) | 18.6 µM (inactive) | 28 µM (inactive) | 39.7 µM (inactive) | 31.6 µM (inactive) |  | 32.5 µM (inactive)
C=C1C(=O)O[C@H]2C1C[C@H](O)[C@@]1(C)OC1CC[C@@]1(C)O[C@H]21 (stereo partly specified) | 18.1 µM (inactive) | 2.79 µM (inactive) | 27.6 µM (inactive) |  | 16.9 µM (inactive) |  | 14.9 µM (inactive) | 17.4 µM (inactive) | 19 µM (inactive) | 26.5 µM (inactive) | 18.7 µM | 19.4 µM (inactive) |  | 16.6 µM (inactive) |  | 32.5 µM (inactive) | 43.2 µM (inactive) | 15.5 µM (inactive) | 20.9 µM (inactive) | 23.5 µM (inactive)
Nc1nc(N)c2ncn(CC(CO)CC(c3ccccc3)P(=O)(O)O)c2n1 (stereo unspecified) | > 100 µM (inactive) | > 100 µM (inactive) | > 100 µM (inactive) | > 100 µM (inactive) | > 100 µM (inactive) | > 100 µM (inactive) | > 100 µM (inactive) | > 100 µM (inactive) | > 100 µM (inactive) | > 100 µM (inactive) | > 100 µM | > 100 µM (inactive) | > 100 µM (inactive) | > 100 µM (inactive) | > 100 µM (inactive) | > 100 µM (inactive) | > 100 µM (inactive) | 2.43 µM (inactive) |  | 
C=C1C(=O)O[C@@H]2OC3(C)CCC4C(C)CCC1C42OO3 (stereo partly specified) |  | 1.7 µM (inactive) | 22.1 µM (inactive) | 3.41 µM (inactive) | 15.7 µM (inactive) | 14.7 µM (inactive) | 3.58 µM (inactive) | 3.82 µM (inactive) | 3.09 µM (inactive) | 2.18 µM (inactive) | 1.87 µM | 11.5 µM (inactive) | 3.33 µM (inactive) | 1.53 µM (inactive) | 2.36 µM (inactive) | 2.67 µM (inactive) | 2.94 µM (inactive) |  | 2.42 µM (inactive) | 
NS(=O)(=O)c1ccc(-n2c(-c3cccs3)nc3ccc(I)cc3c2=O)cc1 | 21.4 µM (inactive) | 19.7 µM (inactive) | 30.4 µM (inactive) | 16 µM (inactive) | 24.6 µM (inactive) | 40.4 µM (inactive) | 21.7 µM (inactive) | 30.3 µM (inactive) | 31.4 µM (inactive) |  | 20.9 µM | 17.3 µM (inactive) |  | 17.3 µM (inactive) | 18.4 µM (inactive) | 31.7 µM (inactive) | 28.2 µM (inactive) | 23.7 µM (inactive) | 29.1 µM (inactive) | 18.9 µM (inactive)
Nc1ccccc1NC(=O)c1ccc(CNC(=O)OCc2cccnc2)cc1 [ENTINOSTAT] | 1.88 µM (inactive) | 0.908 µM (active) | 2 µM (inactive) | 1.51 µM (inactive) | 0.125 µM (active) | 2.65 µM (inactive) | 2.78 µM (inactive) | 4.75 µM (inactive) | 0.993 µM (active) | 0.424 µM (active) | 3.56 µM | 1.97 µM (inactive) | 0.429 µM (active) | 0.415 µM (active) | 0.859 µM (active) | 0.524 µM (active) | 2.43 µM (inactive) | 1.04 µM (active) | 1.24 µM (inactive) | 

From ChEMBL document CHEMBL1201862, “PubChem BioAssay data set” (2004)
